Laboratory results from patent US5332743A, “Benzyl and benzhydryl alcohols” (priority 1992, dated 1994).
Where two headings read alike, the source gives them in different places.

Experiments:
dopamine D2 receptor = target: T1, dopamine D2 receptor (Rattus norvegicus, UniProt P61169); assay: Receptor Binding Assay: dopamine D2 binding, 3H-spiperone, striatal P2 fraction; settings: 3H-spiperone 0.05 nM, 45 min at 37° C., read-out: D-2 Binding K-I
T1 construct: P2 fraction (synaptosomal membranes) prepared from male, Wistar rats; from tissue; host or cells: striatum of male Wistar rats, P2 fraction (synaptosomal membranes)
T1 sequence (P61169 whole entry): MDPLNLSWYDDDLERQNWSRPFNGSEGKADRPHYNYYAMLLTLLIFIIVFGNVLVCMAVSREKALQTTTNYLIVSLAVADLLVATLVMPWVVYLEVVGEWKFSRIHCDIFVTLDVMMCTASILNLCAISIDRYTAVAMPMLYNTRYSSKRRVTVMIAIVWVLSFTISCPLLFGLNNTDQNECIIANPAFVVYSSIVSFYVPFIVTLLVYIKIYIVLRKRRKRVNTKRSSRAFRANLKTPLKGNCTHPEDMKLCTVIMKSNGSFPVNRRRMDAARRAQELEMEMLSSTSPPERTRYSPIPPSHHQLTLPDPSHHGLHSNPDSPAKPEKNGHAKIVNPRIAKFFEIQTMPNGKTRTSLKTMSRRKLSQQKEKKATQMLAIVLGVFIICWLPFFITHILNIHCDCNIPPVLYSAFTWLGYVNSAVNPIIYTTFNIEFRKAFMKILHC
Method: The dopamine D2 binding activity of compounds was determined using a P2 fraction (synaptosomal membranes) prepared from male, Wistar rats. […] The data from this assay were analyzed by calculating the percent inhibition of the binding of the tritiated ligands by given concentrations of the test compound. Ki values, where given, were obtained from the logit analysis of concentration-inhibition curves.

[1] = system: Conditioned Avoidance Responding (Rat); assay: Block of Conditioned Avoidance Responding (Rat) test (CAR); type: in vivo; settings: for change in vivo at 5 mg/kg: read-out: CAR 5 mg/kg (IP) (mean % change in CAR); for Escape Loss (% failures to escape, group mean): at CAR 5 mg/kg IP
From the text: Block of Conditioned Avoidance Responding (Rat)
Apparatus: Rat operant chambers, housed within sound attenuated booths, both from Capden Instruments Ltd., were used in this test. The test chamber (8" H×90-3/8" W×9" D) is constructed of aluminum and plexiglass with floor grid bars of stainless-steel (1/8" O.D.) spaced 9/16" apart. A stainless-steel operation level 1-1/2" wide projects 3/4" into the chamber and is positioned 2-2/8" above the grid floor. The shock stimulus is delivered via the grid floor by a Coulbourn Instruments solid state module. The parameters of the test and the collection of data are controlled automatically.
The rats are trained for two weeks to approach criterion levels in the avoidance test (90% avoidance rate). One-hour training sessions are run at about the same time each day for four or five days a week. The training session consists of 120 trials, with the conditioned stimuli presented every 30 seconds. A trail begins with presentation of the conditioned stimuli (a light and a tone). If the rat responds by depressing the operant lever during the 15-second presentation of the conditioned stimuli, the trial is terminated and the animal is credited with a CAR. Failure to respond during the conditioned stimuli causes the presentation of the unconditioned stimulus, a 0.7 mA shock which is accompanied by a light and tone for […]. If the rat depressed the lever within the ten-second period, the shock and trial are terminated and an escape response recorded. If the rat fails to depress the lever during the UCS (shock), the trial is terminated after ten seconds of shock and the absence of a response is scored as a failure to escape. Intertrial level presses have no effect. If a rat performs at the 90% CAR level for two weeks, it is then run twice a week o the test schedule (see below) until baseline performance stabilized.
The percent change in CAR on the drug treatment day compared to vehicle pretreatment day is the key measure. The percent change (% change) in CAR is determined using the following formula:
% change CAR=((Day 2% CAR/Day 1% CAR)×100)-100
A negative number indicates a blockade of CAR, whereas a positive number would indicate increased CAR. The test results are reported as the mean % change for the group of rats. […] Failure to escape was calculated for each animal as follows:
% Failures=# of Failures to Escape/# of trials
The % failures, viz., loss of escape, is also reported as a group mean. Failures to escape are monitored closely and a session is terminated if ten failures occurred.

[2] = rat, 5 mg/kg IP, negative number = blockade of CAR, -20% is the minimum for active

Ki (dopamine D2 receptor) [nM] | Escape Loss (% failures to escape, group mean) ([1]; rat) [%] | Compound | change in vivo at 5 mg/kg ([1]; Rattus norvegicus, ip) [%] | change in vivo at 5 mg/kg [1, 2] [%]
90 | 12 | COc1ccccc1N1CCN(Cc2cccc(C(O)C(C)C)c2)CC1 (stereo not drawn) [Compound 7, [3-[4-(2-Methoxyphenyl)-1-piperazinyl]methyl]-α-(1-methylethyl)-benzenemethanol] |  | -98.8
16 | 2 | COc1ccccc1N1CCN(Cc2cccc(C(O)C3CCCCC3)c2)CC1 (stereo not drawn) [Compound 8, [3-[4-(2-Methoxyphenyl)-1-piperazinyl]methyl]-α-(cyclohexyl)-benzenemethanol] |  | -92.9
53 | 32 | COc1ccccc1N1CCN(Cc2ccc(C(O)c3ccccc3)cc2)CC1 (stereo not drawn) [Compound 9, [4-[4-(2-Methoxyphenyl)-1-piperazinyl]methyl]-α-phenylbenzenemethanol] |  | -99.4

Continued, compound first:

Compound | Ki (dopamine D2 receptor) [nM] | Escape Loss (% failures to escape, group mean) ([1]; rat) [%] | change in vivo at 5 mg/kg ([1]; Rattus norvegicus, ip) [%] | change in vivo at 5 mg/kg [1, 2] [%]
CC(C)Oc1ccccc1N1CCN(Cc2cccc(CO)c2)CC1 [Compound 4, 1-(3-Hydroxymethylphenyl)methyl-4-[2-(1-methylethoxy)phenyl]-piperazine] | 302 | 13 | -89.2 | 
COc1ccccc1N1CCN(Cc2cccc(C(O)c3ccccc3)c2)CC1 (stereo not drawn) [Compound 5, [3-[4-(2-Methoxyphenyl)-1-piperazinyl]methyl]-α-phenylbenzenemethanol] | 87 | 2 |  | -64.6
CCC(C)(O)c1cccc(CN2CCN(c3ccccc3OC)CC2)c1 (stereo not drawn) [Compound 6, [3-[4-(2-Methoxyphenyl)-1-piperazinyl]methyl]-α-methyl-α-ethylbenzenemethanol] | 198 | 2 |  | -86
